In patent publication US9540325B2, “N1-cyclic amine-N5-substituted phenyl biguanide derivatives, methods of preparing the same and pharmaceutical composition comprising the same” (Immunomet Therapeutics, Inc., priority 2011, dated 2017):

Tests used:
[1] = tested on: MCF7 cells (breast cancer stem cell, mammosphere); experiment: Measurement of effect of inhibiting mammosphere formation; type: cell-based, human; conditions: MCF7, 8 days; for Number of Mammospheres: size 50 um or more; for inhibition at 0.1 µM / inhibition at 1 µM / inhibition at 5 µM / inhibition at 10 µM: Homo sapiens, 192 h, vs untreated, read-out: Mammosphere formation inhibition rate (%)
Description: The cancer stem cells refer to cancer cells that have self-regeneration or differentiation capacity which is characteristically innate to stem cells. Here, the cancer stem cells show resistance to conventional anticancer therapy and poor prognosis. Therefore, the biguanide derivative has an effect of inhibiting cancer recurrence by inhibiting formation and proliferation of cancer stem cells, especially, breast cancer stem cells (mammosphere). Accordingly, the effect of the biguanide derivative of inhibiting breast cancer stem cell (mammosphere) formation was measured in an MCF7 cell line derived from human breast cancer forming mammospheres, and simple experimental methods are described, as follows.
MCF7 cells derived from human breast cancer were cultured (culture temperature: 37° C., pH: 7.0 to 7.4) in a DMEM medium supplemented with 10% (v/v) fetal bovine serum (commercially available from Gibco Life Technologies (US)) so that the MCF7 cells could grow to approximately 80% confluency and used in an experiment to determine an ability to form mammospheres. After MCF7 cells were made to single cells and the number of cell was counted, MCF7 cells were put in to a 24-well plate at 2,000 cells/well. […] Also, a culture media for forming mammospheres was prepared so that a serum-free DMEM/F12 medium could include 2% B27 (commercially available from Invitrogen), 20 ng/ml EGF (commercially available from Sigma), 5 μg/ml insulin (commercially available from Sigma) and 1 μg/ml hydrocortisone (commercially available from Sigma). Cells were cultured in a CO2 incubator for 24 hours and treated with each of the compounds synthesized in the examples at contents of 0.1 μM, 1 μM, 5 μM and 10 μM. Then, the cultured cells were added to the culture media for forming mammospheres so that a final volume of the culture broth could be adjusted to 1 ml. The cells were treated with the same concentrations of phenformin hydrochloride as the control and cultured in a CO2 incubator for 8 days. Thereafter, the mammosphere-forming efficiency and size of the cells were observed. After 8 days, the number of mammospheres having a size of 50 um or more was determined to calculate the mammosphere-forming efficiency (MFE (%)). The MFE (%) is calculated according to the following Equation 1.
When the cells were cultured for 8 days, MFE (%) of the cells on a plate treated with the phenformin hydrochloride and the compounds synthesized in the examples was compared with MFE (%) of the cells on a plate that was not treated with the compounds. The results are listed as the mammosphere formation inhibition rate (%) in the following Table 4, and the mammosphere-forming efficiencies of the respective compounds are shown in FIG. 1.

HCT116 cells = experiment: Measurement of effect of inhibiting cancer cell proliferation (MTT); type: cell-based, human; conditions: for inhibition at 100 µM: HCT-116, 100 μM, read-out: Cell Growth Inhibition (%) at 100 μM
Method in brief: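 HCT116 cells (~5,000/well, DMEM with 10% FBS) treated 48 h with compound at 0.39–100 μM, metformin hydrochloride control at 0.1–25 mM. Viability by MTT (3 h, formazan in DMSO, A560) relative to untreated wells; GIC50 from the viability curve, also viability at 100 μM.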

AMPKα = experiment: Measurement of AMPK activation effect (AMPKα Thr172 phosphorylation immunoassay) in MCF7 cells; type: cell-based, human; conditions: 24 hours; for AMPK activation effect at 10 μM (%) / AMPK activation effect at 50 μM (%): relative to untreated cells; for AMPK activation effect AC150: concentration at which AMPK activation reached 150%
Method in brief: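 MCF7 cells in DMEM/10% FBS were treated 24 h with derivatives at 5, 10 and 50 μM (metformin hydrochloride control, 0.05–10 mM). AMPKα Thr172 phosphorylation was measured by immunoassay on 20 μg lysate. AC150 (concentration giving 150% activation) came from concentration–response curves, with activation also reported at fixed concentrations.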

melting point	GI50 (HCT116 cells; 48 hours, hydrochloride)	GI50 (HCT116 cells; Homo sapiens, HCT-116, 48 h)	Structure (SMILES)	MFE (%) (mammosphere-forming efficiency) ([1]; 0.1 μM)	Number of Mammospheres ([1]; 0.1 μM)	MFE (%) (mammosphere-forming efficiency) ([1]; 1 μM)	Number of Mammospheres ([1]; 1 μM)	MFE (%) (mammosphere-forming efficiency) ([1]; 5 μM)	Number of Mammospheres ([1]; 5 μM)	MFE (%) (mammosphere-forming efficiency) ([1]; 10 μM)	Number of Mammospheres ([1]; 10 μM)	inhibition at 0.1 µM ([1]; 0.1 μM)	inhibition at 1 µM ([1]; 1 μM)	inhibition at 5 µM ([1]; 5 μM)	inhibition at 10 µM ([1]; 10 μM)	inhibition at 100 µM (HCT116 cells; Homo sapiens, 48 hours)	AMPK activation effect at 10 μM (%) (AMPKα)	AMPK activation effect at 50 μM (%) (AMPKα)	AMPK activation effect AC150 (AMPKα)
283 to 284 °C	22.7 µM		Cl.N=C(NC(=N)N1CCCC1)Nc1ccc(C(F)(F)F)cc1 [Example 26, N1-pyrrolidine-N5-(4-trifluoromethyl)phenyl biguanide hydrochloride]	5.3%	105	5.6%	112	6.0%	120	3.6%	72 ± 11.3	-11.7%	-8.7%	-16.5%	30.1%	97.6%	255%	642%	3.1 µM
213 to 215 °C		41.5 µM	Cl.N=C(NC(=N)N1CCCCCC1)Nc1cccc(Cl)c1 [Example 21, N1-azepane-N5-(3-chloro)phenyl biguanide hydrochloride]	5.8%	115	5.3%	105	3.6%	71 ± 4.2	2.3%	46 ± 2.1	30.1%	-1.9%	31.1%	55.8%	97%	211%	653%	4.8 µM
273 to 274 °C		6.7 µM	Cl.N=C(NC(=N)N1CCCCC1)Nc1ccc(C(F)(F)F)cc1 [Example 27, N1-piperidine-N5-(4-trifluoromethyl)phenyl biguanide hydrochloride]	5.2%	103	5.2%	105 ± 16.3	3.0%	61 ± 3.5	1.6%	32	0%	-1.5%	41.3%	68.9%	97.7%	455%		2.4 µM
172 to 174 °C		48.2 µM	Cl.N=C(NC(=N)N1CCCCC1)Nc1cccc(Cl)c1 [Example 20, N1-piperidine-N5-(3-chloro)phenyl biguanide hydrochloride]	3.6%	72	5.2%	103	3.8%	75	1.5%	29	30.1%	0%	27.2%	71.8%	97.5%	236%	558%	3.2 µM
